Measurements as given in article PMC6778101 (Nature Communications, 2019).
Read-outs that look alike come from different tables or passages of the source. Ends that are not written are not given here. Peptide text beside a SMILES is read from it.

Tests used:
[1] = system: S. enterica LT2; type: cell-based, Salmonella enterica subsp. enterica serovar Typhimurium; settings: broth dilution, 37 °C, 18 h
Protocol: Unless otherwise indicated, we used E. coli K-12 BW25113 in all high-throughput experiments. To investigate the impact of mutation rate on evolution of AMP resistance, we initiated laboratory evolution with a mutator strain E. coli mutD5 that carries mutations in the dnaQ gene (L73W and A164V).
MICs were determined using a standard serial broth dilution technique. Briefly, 11-step serial dilutions were prepared in 96-well microtiter plates with three replicates per strain and antimicrobial compound. Each experiment was repeated at least twice. 5 × 10^5 cells/mL were inoculated into each well, and the plates were incubated at 30 °C in case of E. coli K-12 BW25113, and its antibiotic and AMP-adapted lines, or 37 °C in case of the other bacterial species. Plates were shaken at 300 r.p.m. during incubation for 24 and 18 h, respectively. Cell growth was monitored by measuring the optical density (OD600 value, Biotek Synergy 2 microplate reader was used for this purpose). […] Relative MIC was calculated as follows: MICrelative = MICevolved/MICcontrol.

[2] = system: E. coli K-12 BW25113 carrying ASKA plasmids; test: microbe, parasite or virus in culture; type: cell-based, Escherichia coli; settings: for MIC value of E. coli K-12 BW25113 carrying the empty plasmid of the ASKA library / MIC value of E. coli K-12 BW25113 carrying the pooled plasmids of the ASKA library: MS medium + 10 µg mL−1 CHL + 500 µM IPTG, 5 × 10^5 cells, 16–18 h, 37 °C; for MIC fold change: MIC of ASKA pooled library / MIC of E.coli carrying empty ASKA plasmid; for Average fold change of the 3 replicates (MIC pooled ASKA library / MIC empty plasmid): mean of three biological replicates
Procedure, shortened: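 E. coli BW25113 transformed with the pooled ASKA ORF overexpression library, or empty-vector control, grown with CHL, induced with IPTG.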

[3] = system: E. coli K-12 BW25113; test: microbe, parasite or virus in culture; type: cell-based, Escherichia coli; settings: for MIC: starting wild-type strain of the evolution experiment, broth dilution, MS medium, 5 × 10^5 cells/mL, 30 °C, 24 h, MIC = OD600 < 0.05; for MIC in 30 °C / MIC in 37 °C: strain not given
[4] = replicate 1 (first line per drug)
[5] = replicate 2 (second line per drug)
[6] = replicate 3 (third line per drug)

Compound	MIC ([1]; Salmonella enterica subsp. enterica serovar Typhimurium LT2)	MIC value of E. coli K-12 BW25113 carrying the empty plasmid of the ASKA library ([2]; Replicate 1)	MIC value of E. coli K-12 BW25113 carrying the pooled plasmids of the ASKA library ([2]; Replicate 1)	MIC value of E. coli K-12 BW25113 carrying the empty plasmid of the ASKA library ([2]; Replicate 2)	MIC value of E. coli K-12 BW25113 carrying the pooled plasmids of the ASKA library ([2]; Replicate 2)	MIC value of E. coli K-12 BW25113 carrying the empty plasmid of the ASKA library ([2]; Replicate 3)	MIC value of E. coli K-12 BW25113 carrying the pooled plasmids of the ASKA library ([2]; Replicate 3)	MM (median of MICs) ([3]; median of MICs in E. coli K12)	MIC [3]	MIC ([1]; starting strain, MS medium)	MIC fold change [2, 4]	MIC fold change [2, 5]	MIC fold change [2, 6]	Average fold change of the 3 replicates (MIC pooled ASKA library / MIC empty plasmid) [2]	MIC in 30 °C ([3]; incubation time 24 hour)	MIC in 37 °C ([3]; incubation time 24 hour)	MIC in 30 °C ([3]; incubation time 48 hour)	MIC in 37 °C ([3]; incubation time 48 hour)	MIC in 30 °C ([3]; incubation time 72 hour)	MIC in 37 °C ([3]; incubation time 72 hour)
SWLSKTAKKLENSAKKRISEGIAIAIQGGPR [CP1, Cecropin P1]	1.2 to 2.4 µM	2.31 µg/mL	2.31 µg/mL	2.31 µg/mL	2.31 µg/mL	2.31 µg/mL	2.31 µg/mL	2.95 µg/mL	100 µg/mL											
CC[C@H](C)[C@@H]1NC(=O)CNC(=O)[C@H](CCCNC(=N)N)NC(=O)[C@H](Cc2ccc(O)cc2)NC(=O)[C@@H]2CSSC[C@H](NC1=O)C(=O)N[C@@H](Cc1ccc(O)cc1)C(=O)N[C@@H](CCCNC(=N)N)C(=O)N[C@@H](CCCCN)C(=O)N[C@H](C(=O)N[C@@H](CCCNC(=N)N)C(N)=O)CSSC[C@H](NC(=O)[C@H](Cc1c[nH]c3ccccc13)NC(=O)[C@@H](N)CCCNC(=N)N)C(=O)N[C@@H](Cc1ccccc1)C(=O)N[C@@H](CCCNC(=N)N)C(=O)N[C@@H](C(C)C)C(=O)N2 [TPII, tachyplesin II] (HELM PEPTIDE1{R.W.C.F.R.V.C.Y.R.G.I.C.Y.R.K.C.R.[am]}$PEPTIDE1,PEPTIDE1,3:R3-16:R3|PEPTIDE1,PEPTIDE1,7:R3-12:R3$$$V2.0; N-terminus and C-terminus assumed; bridges inferred)										4 µg/mL	1	1	1	1.00	5 µg/mL	5 µg/mL	5 µg/mL	6 µg/mL	6 µg/mL	6 µg/mL
NC[C@H]1O[C@H](O[C@H]2[C@H](O)[C@@H](O[C@H]3O[C@H](CO)[C@@H](O)[C@H](N)[C@H]3O)[C@H](N)C[C@@H]2N)[C@H](O)[C@@H](O)[C@@H]1O [KAN, Kanamycin]		9.65 µg/mL	12.55 µg/mL	7.43 µg/mL	9.65 µg/mL	7.43 µg/mL	12.55 µg/mL		8 µg/mL		1.3	1.3	1.69	1.43						
